The test system of experiment [1] is Neutrophil. Kind of experiment: Antiinflammatory activity in human neutrophils assessed as inhibition of fMLF/cytochalasin B-induced superoxide anion generation at 10 uM preincubated for 5 mins followed by fMLF addition after priming with CB for 3 mins by spectrophotometric analysis relative to control. The experiment is classed as functional.
Experiment [2] has as its system Neutrophil. Kind of experiment: Antiinflammatory activity in human neutrophils assessed as inhibition of fMLF/cytochalasin B-induced superoxide anion generation preincubated for 5 mins followed by fMLF addition after priming with CB for 3 mins by spectrophotometric analysis. The experiment is classed as functional, cell-based.

SMILES strings stand for the structures. Bounds are passed on as bounds.

By inhibition is commonly meant the drop in the measured response relative to a control, in per cent. A word on the IC50: it is the point on the concentration scale where inhibition reaches its midpoint.

Take `COc1cc2c(cc1O)C[C@H]1c3c(cc(OC)c(OC)c3-2)CCN1C`: in the experiment on Neutrophil [1], the inhibition at 10 µM is over 50%. Moreover, the IC50 in the experiment on Neutrophil [2] stood at 8.36 µM.
The like results for `C=C1O[C@@H]2[C@@H](OC(C)=O)C3=C(C)C(=O)OC3=C[C@@]2(C)[C@@H]2C[C@H]12` were, in that order, over 50% and 7.45 µM.
As for `O=c1c(-c2ccc(O)cc2)coc2cc(O)cc(O)c12` [GENISTEIN], the IC50 in the experiment on Neutrophil [2] came out at 1.11 µM.
In the case of `COc1cc2c(cc1O)C[C@H]1c3c(cc(OC)c(O)c3-2)CCN1C` [ISOBOLDINE], in the experiment on Neutrophil [1], the inhibition at 10 µM was over 50%. For the same compound, the 50% inhibitory concentration (IC50) in the experiment on Neutrophil [2] was 5.81 µM.

The values are drawn from ChEMBL document CHEMBL4725233, “Anti-inflammatory principles from Lindera aggregata” (Bioorg Med Chem Lett, 2020).
